Two molecules from US20250270170A1, “2,3-DIMETHOXY-5-METHYL-1,4-BENZOQUINONE ALKYL ALCOHOL DERIVATIVE AND USE THEREOF” (BEIJING ANJIANXI BIO-MEDICAL TECHNOLOGY CO., LTD., priority 2021, published 2025) can be followed below.

Marks after values point to notes of the source that are not given here.

Data set [1] concerns human esophageal cancer ECA109 transplanted tumor. The data set can be described thus: Example 8: tumor growth in ECA109 transplanted tumor model. To be noted: DDP 5 mg/kg i.p. QW×4. The class given is in vivo, nude mice. The source says: The assay animals, calculation of tumor volume (TV), end of assay, data recording, calculation formula of tumor growth inhibition rate TGI (%), and statistical analysis method were the same as those in Example 3; the preparation of the administration formulation of the compound of formula (I) was the same as that in Example 5. An appropriate amount of CMC-Na solid was weighed, and an appropriate volume of deionized water was firstly added. The mixture was vortexed and stirred until the solid was completely dispersed and evenly distributed, to give a 0.5% CMC-Na aqueous solution, which was stored at 2 to 8° C. in a refrigerator. An appropriate amount of DDP was weighed and put into a glass bottle, and an appropriate amount of physiological saline was added to the bottle. […] This solution was prepared before each administration. Human esophageal cancer cells ECA109 were obtained from the Cell Bank of Wuhan University (CCTCC, cryopreserved in liquid nitrogen in the laboratory). […] The cells were pipetted with a pipette to disperse them evenly, and the cells were put into a 50-mL centrifuge tube, which was placed in an ice box. A 1-mL syringe was used to draw the cell suspension, which was injected subcutaneously into the axilla of the front right limb of a […]. Each animal was inoculated with 200 μL (1.0×10^7 cells/mouse) to establish an ECA109 transplanted tumor model in nude mice. After the inoculation, the animal status and tumor growth were regularly observed, and the tumor diameter was measured using an electronic vernier caliper. The data were input into an Excel spreadsheet to calculate the tumor volume. When the tumor volume reached 100 to 300 mm^3, animals in good health and with similar tumor volumes were selected and divided into groups using randomized block method. The day of grouping was regarded as the first day of the assay (D1). After the start of the assay, the tumor diameter was measured twice a week, the tumor volume was calculated, and the animal body weight was also weighed and recorded. [table]

The nature of data set [2]: Example 7: body weight of NCI-N87 tumor-bearing nude mice. The format is in vivo. Particulars: DDP 4/2/1/4 mg/kg IP.
The subject of data set [3] is NCI-H460 cells. The data set can be described thus: CCK-8 cell proliferation assay, NCI-H460. Particulars: Homo sapiens. The format is cell-based. The procedure: (1) Cells in the logarithmic growth phase were taken and digested to make a cell suspension. 20 μl of the cell suspension was taken with a pipette, and added to a CountStar disposable cell counting plate for cell counting, and the counting results were recorded. The cell concentration was adjusted to 30,000 to 40,000 cells/ml (note: different cells have different growth rates, so the number of cells in each well was slightly different).
(2) A 96-well plate was taken. Since the wells in the outermost circle of the culture plate were easy to evaporate and dry, causing inaccurate volumes, and increasing errors, 100 μl of PBS was added to the wells in the outermost circle, which were not used as assay wells.
(3) The adjusted cell suspension was added to the 96-well plate, with 100 μl in each well, resulting approximately 3000 to 4000 cells in each well. The plate was placed in a 37° C. incubator under the condition of 5% CO2 for cell culture, and the drug was added when the cells adhered to the wall.
(4) Drug dilution. The concentration gradient was set as: 0 μM, 10 μM, 50 μM, 100 μM, and 200 μM, with 3 duplicates for each concentration. In addition, blank control wells containing only culture medium and drug without cells were also set.
(5) The plate was incubated in the incubator for 24 h, 48 h and 72 h, respectively. After reaching the set time point, the 96-well plate was taken out from the incubator, and 10 μl of CCK-8 reagent was added to each well, taking care to avoid bubbles. The plate was shaked to mix evenly, and put back into the incubator to culture for another 2 hours.
(6) To detect the absorbance, the 96-well plate was placed in a […], and the absorbance value (OD value) at 450 nm was detected. The data was recorded. Cell viability=(OD value of the assay well−OD value of the blank control well)/(OD value of the solvent control well−OD value of the blank control well)×100%.
(7) The data was imported into GraphPad Prism5 for plotting. The IC50 values were calculated, and the curves were drawn.

Consider `N.N.[Cl][Pt][Cl]` [DDP, cisplatin], for which the Mean tumor volume in data set [1] (D1) was 193 ± 9 mm^3; in data set [1] (D5) it was 204 ± 5 mm^3; in data set [1] (D8), 203 ± 11** mm^3; in data set [1] (D12), 215 ± 10** mm^3; in data set [1] (D15) it was 224 ± 8** mm^3; in data set [1] (D19), 247 ± 8** mm^3. Besides, the Mean tumor volume is given as 259 ± 8** mm^3 in data set [1] (D22); 276 ± 9** mm^3 in data set [1] (D26); 285 ± 9** mm^3 in data set [1] (D29); 259 ± 12** mm^3 in data set [1] (D33); 292 ± 11** mm^3 in data set [1] (D36). The “tumor growth inhibition rate (TGI)” value in data set [1] (D5) is “(64%)”; in data set [1] (D8), “(87%)”; in data set [1] (D12) it was “(79%)”; in data set [1] (D15), “(79%)”; in data set [1] (D19) it was “(67%)”; in data set [1] (D22), “(63%)”. Besides, the “tumor growth inhibition rate (TGI)” value in data set [1] (D26) is reported as “(58%)”; in data set [1] (D29), “(59%)”; in data set [1] (D33), “(73%)”; in data set [1] (D36), “(60%)”. The Animal body weight in data set [2] (D12) was 18.6 ± 0.5 g; in data set [2] (D16), 17.9 ± 0.3 g; in data set [2] (D19) it was 18.0 ± 0.4 g; in data set [2] (D23), 16.9 ± 0.5 g; in data set [2] (D26) it was 17.9 ± 0.5 g; in data set [2] (D30), 17.5 ± 0.3 g. For the same molecule, the Animal body weight in data set [2] (D33) is reported as 18.6 ± 0.4 g; in data set [2] (D37), 18.9 ± 0.4 g; in data set [2] (D40) it was 19.2 ± 0.4 g; in data set [2] (D44), 18.3 ± 0.3 g. The “body weight loss rate” value in data set [2] (D16) is recorded as 3.9%; in data set [2] (D19) it was 3.3%; in data set [2] (D23), 9.2%; in data set [2] (D26), 3.4%; in data set [2] (D30) it was 6.0%; in data set [2] (D33), 0.090%. Further, the “body weight loss rate” value in data set [2] (D37) is listed as −2.0%; in data set [2] (D40) it was −3.1%; in data set [2] (D44), 1.4%.

Regarding `COC1=C(OC)C(=O)C(CCCCCCCCCCOC(=O)Cc2c(C)n(C(=O)c3ccc(Cl)cc3)c3ccc(OC)cc23)=C(C)C1=O` [compound of formula (I)], the IC50 came to 125.3 ± 1.01 µM in data set [3] (24 h), 66.4 ± 0.87 µM in data set [3] (48 h) and 48.5 ± 1.12 µM in data set [3] (72 h).
